# Data reported in patent US6846489B1, “Vaccines containing a saponin and a sterol” (priority 1995, dated 2005).
# Tests used:
# erythrocytes = experiment: Lytic activity of QS21 on erythrocytes (hemolysis); assay type: cell-based; settings: for lytic activity: expressed as μg QS21 equivalent for the same hemolysis, 5 μg QS21 (or digitonin)
# Experimental: When QS21 is added to erythrocytes, they lyse them releasing hemoglobin. This lytic activity can also be measured using liposomes which contain cholesterol in their membrane and an entrapped fluorescent dye, carboxyfluorescein—as the liposomes are lysed the dye is released which can be monitored by fluorescence spectroscopy.
# If the QS21 first associates with cholesterol in liposomes it is no longer lyric towards cells or other liposomes.
# In the presence of phospholipids the cholesterol resides within the phospholipid bilayer which can form a stable suspension of vesicles called liposomes. To avoid the requirement to add phospholipids a soluble derivative was tried.
# [1] = Lytic activity of QS21 on fluorescent liposomes (carboxyfluorescein release); settings: fluorescent liposomes without cholesterol in their membrane
# Experimental: When QS21 is added to erythrocytes, they lyse them releasing hemoglobin. […]
# The same holds true using fluorescent liposomes to measure the lytic activity.
# [2] = Base-mediated hydrolysis of QS21 monitored by reverse-phase HPLC; assay type: physicochemical; settings: pH 9, 37° C.
# From the text: This hydrolysis can be monitored by measuring the decrease in the peak corresponding to QS21 on reverse-phase HPLC.
# [3] = assay type: in vivo, rabbits
# From the text: 1.6 Reactogenicity intra-muscularly in rabbits
# Since the CPK increase is a measure of muscle damage this indicates decreased muscle damage and is confirmed by the histopathology.
# [4] = Binding of the liposome-QS21 complex to alum; assay type: physicochemical; settings: incubated with alum (Al(OH)3) in PBS
# Experimental: QS21 was incubated with neutral liposomes containing excess cholesterol as well as radioactive cholesterol and then incubated with alum (Al(OH)3) in PBS.
# HSV gD = settings: antigen gD (5 μg)
Compound,reduction in the lytic activity of QS21 (erythrocytes; 2000 fold excess (w/w) over QS21),lytic activity (erythrocytes),"lytic activity on erythrocytes (erythrocytes; QS21 incubated with liposomes containing cholesterol before adding to erythrocytes, 1:1 ratio cholesterol to QS21)",lysis of fluorescent liposomes [1],"hydrolysis of the QS21 ([2]; 16 hours, liposomes containing cholesterol added 2:1 (chol:QS21 w/w))","QS21 degraded ([2]; 16 hours, liposomes containing cholesterol, ratio 1:1)","QS21 hydrolysed ([2]; within 16 hours, QS21 alone)","toxicity in rabbits (by CPK) ([3]; QS21 associated with cholesterol-containing liposomes, Chol:QS21=6:1)",CPK Day0 Mean ([3]; mean of 5 rabbits),CPK Day1 Mean ([3]; mean of 5 rabbits),"CPK Day3 Mean ([3]; mean, value in parentheses left out)",binding to alum in PBS [4],"IgG1 %, isotypes 7 days post II (HSV gD)","IgG1, isotypes 7 days post II (HSV gD)","IgG2a %, isotypes 7 days post II (HSV gD)","IgG2a, isotypes 7 days post II (HSV gD)","IgG2b %, isotypes 7 days post II (HSV gD)","IgG2b, isotypes 7 days post II (HSV gD)",IgG 7 post II (GMT) (HSV gD),IgG 14 post II (GMT) (HSV gD)
Polyoxyethanyl-cholesterol sebacate,no reduction,,,,,,,,,,,,,,,,,,,
C[C@@H]1CC[C@@]2(OC1)O[C@H]1[C@@H](O)[C@H]3[C@@H]4CC[C@H]5C[C@@H](O[C@@H]6O[C@H](CO)[C@H](O[C@@H]7O[C@H](CO)[C@@H](O)[C@H](O[C@@H]8OC[C@@H](O)[C@H](O)[C@H]8O)[C@H]7O[C@@H]7O[C@H](CO)[C@H](O)[C@H](O[C@@H]8O[C@H](CO)[C@@H](O)[C@H](O)[C@H]8O)[C@H]7O)[C@H](O)[C@H]6O)[C@H](O)C[C@]5(C)[C@H]4CC[C@]3(C)[C@H]1[C@@H]2C [digitonin],,5 µg,,,,,,,,,,,,,,,,,,
QS21,,5 µg,no lytic activity is detected,no lysis,no hydrolysis,10%,90%,non-toxic,1369 U.I./L,6261 U.I./L,1212 U.I./L,neither neutral liposomes nor QS21 bind to alum,66%,156 µg/mL,28%,67 µg/mL,6%,14 µg/mL,3468,4132
